The source of these data is patent publication US8188073B2, “Benzoxazines and related nitrogen-containing heterobicyclic compounds useful as mineralocorticoid receptor modulating agents” (Mitsubishi Tanabe Pharma Corporation, priority 2006, dated 2012).

A word on the Ki: it is the dissociation constant of the complex between target and ligand, obtained from inhibition or displacement. A high value points to a looser hold on the target. One may read the IC50 as the concentration at which inhibition is half-maximal. High values mean lower potency, low ones higher potency.

One test has as its target T1, glucocorticoid receptors (GR) (Rattus norvegicus, UniProt P06536).
T1 construct: glucocorticoid receptors (GR) derived form rat liver; from tissue; host or cells: rat liver
T1 sequence (P06536 1-795): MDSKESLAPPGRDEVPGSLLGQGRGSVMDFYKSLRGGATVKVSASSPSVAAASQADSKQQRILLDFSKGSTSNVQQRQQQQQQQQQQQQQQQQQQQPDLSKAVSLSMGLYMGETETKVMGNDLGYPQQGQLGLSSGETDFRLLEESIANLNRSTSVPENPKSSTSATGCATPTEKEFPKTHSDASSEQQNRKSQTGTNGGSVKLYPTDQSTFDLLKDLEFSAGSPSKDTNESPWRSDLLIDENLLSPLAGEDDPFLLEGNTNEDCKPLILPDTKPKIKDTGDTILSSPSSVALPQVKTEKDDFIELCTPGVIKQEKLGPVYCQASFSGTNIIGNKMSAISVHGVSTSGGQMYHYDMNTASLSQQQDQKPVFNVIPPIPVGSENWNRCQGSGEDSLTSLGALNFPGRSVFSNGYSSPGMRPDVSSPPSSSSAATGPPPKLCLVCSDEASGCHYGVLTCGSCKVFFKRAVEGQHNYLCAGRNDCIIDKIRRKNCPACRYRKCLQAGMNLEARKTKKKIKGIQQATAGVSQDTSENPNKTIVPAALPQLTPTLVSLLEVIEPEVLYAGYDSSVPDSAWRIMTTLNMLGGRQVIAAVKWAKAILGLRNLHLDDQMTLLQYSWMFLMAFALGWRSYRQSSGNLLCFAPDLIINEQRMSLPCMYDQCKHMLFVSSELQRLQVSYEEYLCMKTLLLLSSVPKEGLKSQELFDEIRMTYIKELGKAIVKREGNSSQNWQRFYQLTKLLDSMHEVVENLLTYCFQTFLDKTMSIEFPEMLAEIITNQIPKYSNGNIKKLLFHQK
The test is described as follows: binding assay using glucocorticoid receptors derived from rat liver and 3H-dexamethazone. Conditions: GR derived from rat liver. The procedure:
(§1) Each biding assay was conducted in a similar manner as the procedure described in The Journal of Pharmacology and Experimental Therapeutics, 1987; 240:p. 650-656.
On to `O=C1C(c2ccccc2)Oc2cc([N+](=O)[O-])ccc2N1c1ccc(F)cc1` (stereo not drawn) [4-(4-fluorophenyl)-7-nitro-2-phenyl-2H-1,4-benzoxizin-3(4H)-one], for which the inhibition constant (Ki) was below 10000 nM.

Turning to `Cc1cc(N2C(=O)C(C)(C)Oc3cc([N+](=O)[O-])ccc32)ccc1F` [4-(4-fluoro-3-methylphenyl)-2,2-dimethyl-7-nitro-2H-1,4-benzoxizin-3 (4H)-one], the inhibitory constant (Ki) was below 10000 nM. The molecule `Cc1ccc(N2C(=O)C(C)(C)Oc3cc([N+](=O)[O-])ccc32)cc1C(F)(F)F` yielded an inhibitory constant (Ki) below 10000 nM.

In the next test the target is T2, mineralocorticoid receptors (MR) (Rattus norvegicus, UniProt P22199).
T2 construct: mineralocorticoid receptors (MR) derived form rat kidney; from tissue; host or cells: rat kidney
T2 sequence (P22199 1-981): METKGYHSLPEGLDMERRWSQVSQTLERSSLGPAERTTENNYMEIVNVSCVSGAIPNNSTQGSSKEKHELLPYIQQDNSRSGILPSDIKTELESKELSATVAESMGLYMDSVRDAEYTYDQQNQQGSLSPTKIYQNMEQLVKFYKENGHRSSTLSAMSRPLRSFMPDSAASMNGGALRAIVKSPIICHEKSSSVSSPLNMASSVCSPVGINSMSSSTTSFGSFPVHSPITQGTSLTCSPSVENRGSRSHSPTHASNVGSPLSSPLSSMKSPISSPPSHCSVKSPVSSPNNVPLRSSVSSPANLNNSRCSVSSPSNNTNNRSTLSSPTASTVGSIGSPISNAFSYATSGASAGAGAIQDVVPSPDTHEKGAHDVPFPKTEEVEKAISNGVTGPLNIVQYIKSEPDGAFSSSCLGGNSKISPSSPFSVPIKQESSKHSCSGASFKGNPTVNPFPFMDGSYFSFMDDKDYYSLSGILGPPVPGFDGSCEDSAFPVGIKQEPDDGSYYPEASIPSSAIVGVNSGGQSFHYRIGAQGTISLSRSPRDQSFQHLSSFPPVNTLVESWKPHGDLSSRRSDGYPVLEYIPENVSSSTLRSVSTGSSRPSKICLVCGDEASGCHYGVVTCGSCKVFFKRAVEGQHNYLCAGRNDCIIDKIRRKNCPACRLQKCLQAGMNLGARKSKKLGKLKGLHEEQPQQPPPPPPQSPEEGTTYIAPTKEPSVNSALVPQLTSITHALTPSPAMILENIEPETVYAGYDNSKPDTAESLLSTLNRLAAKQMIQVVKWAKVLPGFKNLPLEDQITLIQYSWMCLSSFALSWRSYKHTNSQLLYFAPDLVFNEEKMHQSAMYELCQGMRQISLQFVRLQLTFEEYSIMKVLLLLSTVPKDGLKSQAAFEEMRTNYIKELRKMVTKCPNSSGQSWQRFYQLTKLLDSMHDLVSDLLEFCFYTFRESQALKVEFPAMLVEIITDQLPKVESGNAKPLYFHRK
The test is described as follows: binding assay using rat MR and 3H-aldosterone. Conditions: MR derived from rat kidney. The procedure: as §1
For example, in a binding assay using rat MR and ^3H-aldosterone, which was conducted in accordance with a manner as described in The Journal of Pharmacology and Experimental Therapeutics, 1987; 240: p. […] Therefore, the compound [I] of the present invention is useful as a medicament for prevention or treatment of various diseases associated with the receptor and/or aldosterone, such as cardiovascular diseases including hypertension and heart failure.
For the molecule `CC1(C)Oc2cc([N+](=O)[O-])c(Cl)cc2N(c2ccc(F)cc2)C1=O` [6-chloro-4-(4-fluorophenyl)-2,2-dimethyl-7-nitro-2H-1,4-benzoxizin-3(4H)-one], the inhibitory constant (Ki) is below 10000 nM.

The test is the same for the next values; noted with them: rat MR and 3H-aldosterone.
For the molecule `CS(=O)(=O)Nc1ccc2c(c1)OC(c1ccccc1)C(=O)N2c1ccccc1` (stereo not drawn) [N-(3-oxo-2,4-diphenyl-3,4-dihydro-2H-1,4-benzoxazin-7-yl)methane sulfonamide], the IC50 is below 10000 nM. The same measure, in the same setting: the figure for `CC1(C)Oc2cc(NS(C)(=O)=O)ccc2N(c2ccccc2)C1=O` [N-(2,2-dimethyl-3-oxo-4-phenyl-3,4-dihydro-2H-1,4-benzoxazin-7-yl)methanesulfonamide] is below 10000 nM.

The target of a further test is T3, androgen receptors (AR) (Rattus norvegicus, UniProt P15207).
T3 construct: androgen receptors (AR) derived form rat prostate; from tissue; host or cells: rat prostate
T3 sequence (P15207 1-902): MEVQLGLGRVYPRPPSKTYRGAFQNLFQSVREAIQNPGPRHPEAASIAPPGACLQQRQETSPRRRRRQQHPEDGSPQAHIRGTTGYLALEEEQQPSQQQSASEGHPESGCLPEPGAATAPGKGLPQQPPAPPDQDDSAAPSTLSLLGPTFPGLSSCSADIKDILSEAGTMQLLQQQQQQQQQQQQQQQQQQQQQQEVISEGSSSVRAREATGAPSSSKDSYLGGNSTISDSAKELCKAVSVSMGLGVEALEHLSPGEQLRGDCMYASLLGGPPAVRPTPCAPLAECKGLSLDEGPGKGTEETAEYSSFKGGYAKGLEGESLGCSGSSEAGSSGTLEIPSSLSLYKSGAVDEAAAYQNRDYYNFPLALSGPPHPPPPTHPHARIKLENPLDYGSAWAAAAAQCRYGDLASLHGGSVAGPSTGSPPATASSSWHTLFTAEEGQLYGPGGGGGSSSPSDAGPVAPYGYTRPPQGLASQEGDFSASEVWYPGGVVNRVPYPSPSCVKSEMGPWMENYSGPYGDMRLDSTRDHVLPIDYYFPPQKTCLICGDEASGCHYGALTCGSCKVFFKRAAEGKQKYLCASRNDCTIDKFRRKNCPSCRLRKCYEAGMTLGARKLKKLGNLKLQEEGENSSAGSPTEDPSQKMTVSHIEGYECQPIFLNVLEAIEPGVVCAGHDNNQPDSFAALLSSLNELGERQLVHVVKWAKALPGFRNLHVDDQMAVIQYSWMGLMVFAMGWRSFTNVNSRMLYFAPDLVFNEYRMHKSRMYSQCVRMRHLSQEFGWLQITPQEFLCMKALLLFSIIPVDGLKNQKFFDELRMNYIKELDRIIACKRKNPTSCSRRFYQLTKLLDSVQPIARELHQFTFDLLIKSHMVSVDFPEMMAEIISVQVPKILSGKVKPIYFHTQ
Description: binding assay using androgen receptors derived from rat prostate and 3H-methyltrienorone. Conditions: AR derived from rat prostate. The method, then: as §1
`CC1(C)Oc2cc(N)ccc2N(c2ccc(F)c(F)c2)C1=O` [7-amino-4-(3,4-difluorophenyl)-2,2-dimethyl-2H-1,4-benzoxizin-3(4H)-one] came in with a Ki below 10000 nM.

Another test addresses T4, Aldosterone Receptor (Rattus norvegicus, UniProt P22199).
T4 construct: centrifuged at 100,000×g for 1 hour to give a supernatant as a kidney cytosol fraction; from tissue; host or cells: kidney cytosol of adrenalectomised Sprague-Dawley male rats
T4 sequence (P22199 1-981): T2 sequence (P22199 1-981)
The test is described as follows: Aldosterone Receptor Binding Assay (Experiment 1; kidney cytosol fraction, [3H]aldosterone). Also noted: species or system Sprague-Dawley male rats. Particulars: [3H]aldosterone ca. 2 nM, 4° C. overnight, Ki by Cheng and Prusoff's equation. The method, then:
Experiment 1 [Aldosterone Receptor Binding Assay]
(1) Preparation of Kidney Cytosol Fraction:
Kidneys derived from post-adrenalectomy Sprague-Dawley male rats (7 weeks old) were homogenized in the following buffer solution and the homogenate was centrifuged at 100,000×g for 1 hour to give a supernatant as a kidney cytosol fraction (protein concentration: 15 mg/mL) for the present biding assay.
Composition of Buffer solution: 50 mM Tris-HCl (pH 7.5), 250 mM Sucrose, 50 mM Potassium chloride, 3 mM Magnesium chloride, 20 mM Sodium molybdate and 1 mM Mercaptoethanol
A mixture of 5 μL of a solution of each test compound in dimethylsulfoxide, 200 μL of kidney cytosol fraction, 50 μL of physiological saline (or 50 μL of unlabeled aldosterone solution (final concentration: 1 μM) and (50 μL of [^3H]aldosterone solution (ca. 2 nM) was incubated in a test tube at 4° C. overnight. Thereto was added 100 μL of dextrane-coated charcoal/10 mM Tris-HCl buffer and the mixture was incubated at 4° C. for 30 minutes. The reaction mixture was centrifuged at 3000 rpm for 10 minutes and to the supernatant (150 μL) was added 5 mL of a scintillator (Clearsol II, Nakarai Tesque). The radioactivity was measured by a liquid scintilation counter (TRI CARB 2200CA, Packard). […] Moreover, the dissociation constant (Ki) of each test compound was calculated on Cheng and Prusoff's equation (Ki=IC50/(1+[L]/Kd), wherein [L] is [^3H]aldosterone concentration and Kd is the affinity constant of aldosterone).
As to `CC1(C)Oc2cc(NS(C)(=O)=O)ccc2N(c2ccc(F)cc2)C1=S` [Example 46, N-[4-(4-fluorophenyl)-2,2-dimethyl-3-thioxo-3,4-dihydro-2H-1,4-benzoxazin-7-yl]methanesulfonamide], the inhibition constant (Ki) is below 500 nM. Still for that read-out and setting: then `COc1cc2c(cc1NS(C)(=O)=O)OC(C)(C)C(=O)N2c1ccc(F)cc1` [Example 101, N-[4-(4-Fluorophenyl)-6-methoxy-2,2-dimethyl-3-oxo-3,4-dihydro-2H-1,4-benzoxazin-7-yl]methanesulfonamide], with below 500 nM; and `CC1(C)Oc2cc(NS(C)(=O)=O)ccc2N(c2ccc(Cl)cc2)C1=O` [Example 11], with below 500 nM. Same read-out and setting: the figure for `CC1(C)Oc2cc(NS(C)(=O)=O)ccc2N(c2ccc(F)cc2)C1=O` [Example 9, N-[4-(4-fluorophenyl)-2,2-dimethyl-3-oxo-3,4-dihydro-2H-1,4-benzoxazin-7-yl]methanesulfonamide] is below 500 nM; for `COc1cccc(N2C(=O)C(C)(C)Oc3cc(NS(C)(=O)=O)ccc32)c1` [Example 53] it is below 500 nM. Same read-out and setting: the figure for `Cc1cc(F)ccc1N1C(=O)C(C)(C)Oc2cc(NS(C)(=O)=O)ccc21` [Example 50] is below 500 nM.

With `CC1(C)Oc2cc(NS(C)(=O)=O)ccc2N(c2ccncc2)C1=O` [Example 64], the Ki was below 500 nM. For `CC1(C)Nc2cc(NS(C)(=O)=O)ccc2N(c2ccc(F)cc2)C1=O` [Example 45, N-[1-(4-fluorophenyl)-3,3-dimethyl-2-oxo-1,2,3,4-tetrahydroquinoxalin-6-yl]methanesulfonamide], the Ki was below 500 nM. Turning to `CS(=O)(=O)Nc1ccc2c(c1)OCC(=O)N2c1ccc(F)c(Cl)c1` [Example 67], the Ki lay in the range of 500 to 1000 nM. On to `CC1(C)Oc2cc(NS(C)(=O)=O)ccc2N(c2ccc(F)c(F)c2)C1=O` [Example 10], for which the Ki is below 500 nM.

In turn, `CS(=O)(=O)Nc1ccc2c(c1)OC(c1ccccc1)C(=O)N2c1ccc(Cl)cc1` (stereo not drawn) [Example 6] yielded an inhibition constant (Ki) below 500 nM.

The molecule `COc1cc(N2C(=O)C(C)(C)Oc3cc(NS(C)(=O)=O)ccc32)ccc1F` [Example 55, N-[4-(4-Fluoro-3-methoxyphenyl)-2,2-dimethyl-3-oxo-3,4-dihydro-2H-1,4-benzoxazin-7-yl]methanesulfonamide] registered an inhibition constant (Ki) below 500 nM. Still for that read-out and setting: the figure for `CC1(C)Oc2cc(NS(C)(=O)=O)ccc2N(Cc2ccccc2)C1=O` [Example 19] is below 500 nM; for `CS(=O)(=O)Nc1ccc2c(c1)OC1(CCC1)C(=O)N2c1ccc(F)cc1` [Example 37] it is 500 to 1000 nM.
